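Interpolation was linear, between the two tested concentrations surrounding the appropriate level; five concentrations were tested over 48 hours in 96-well plates. TGI: concentration producing complete growth inhibition.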
Key:
Assay in all cases: DTP human tumour cell line panel, 48 h
OVCAR-8 ovarian = test system: OVCAR-8 ovarian
MALME-3M melanoma = test system: MALME-3M melanoma
NCI-H23 lung = test system: NCI-H23 lung
A498 renal = test system: A498 renal
UACC-62 melanoma = test system: UACC-62 melanoma
SR leukemia = test system: SR leukemia
NCI-H226 lung = test system: NCI-H226 lung
HCT-15 colon = test system: HCT-15 colon
SK-MEL-28 melanoma = test system: SK-MEL-28 melanoma
HCC-2998 colon = test system: HCC-2998 colon
IGROV1 ovarian = test system: IGROV1 ovarian
SK-MEL-5 melanoma = test system: SK-MEL-5 melanoma
EKVX NSCLC = test system: EKVX NSCLC
M14 melanoma = test system: M14 melanoma
PC-3 prostate = test system: PC-3 prostate
RXF 393 renal = test system: RXF 393 renal
HS 578T breast = test system: HS 578T breast
SNB-19 CNS = test system: SNB-19 CNS
NCI/ADR-RES ovarian = test system: NCI/ADR-RES ovarian
HCT-116 colon = test system: HCT-116 colon
OVCAR-3 ovarian = test system: OVCAR-3 ovarian
U251 CNS = test system: U251 CNS
MOLT-4 leukemia = test system: MOLT-4 leukemia
LOX IMVI melanoma = test system: LOX IMVI melanoma
K-562 leukemia = test system: K-562 leukemia
TK-10 renal = test system: TK-10 renal
MCF7 breast = test system: MCF7 breast
KM12 colon = test system: KM12 colon
HT29 colon = test system: HT29 colon
SW-620 colon = test system: SW-620 colon
SF-539 CNS = test system: SF-539 CNS
SF-295 CNS = test system: SF-295 CNS
CAKI-1 renal = test system: CAKI-1 renal
786-0 renal = test system: 786-0 renal
HOP-62 NSCLC = test system: HOP-62 NSCLC
MDA-MB-435 = test system: MDA-MB-435
A549 NSCLC = test system: A549 NSCLC
UO-31 renal = test system: UO-31 renal
ACHN renal = test system: ACHN renal
COLO 205 colon = test system: COLO 205 colon
SN12C renal = test system: SN12C renal
HOP-92 NSCLC = test system: HOP-92 NSCLC
T-47D breast = test system: T-47D breast
NCI-H522 lung = test system: NCI-H522 lung
DU-145 prostate = test system: DU-145 prostate
MDA-N = test system: MDA-N
OVCAR-4 ovarian = test system: OVCAR-4 ovarian
MDA-MB-231 breast = test system: MDA-MB-231 breast
NCI-H460 lung = test system: NCI-H460 lung
UACC-257 melanoma = test system: UACC-257 melanoma
SK-OV-3 ovarian = test system: SK-OV-3 ovarian
CCRF-CEM leukemia = test system: CCRF-CEM leukemia
OVCAR-5 ovarian = test system: OVCAR-5 ovarian
BT-549 breast = test system: BT-549 breast
RPMI-8226 leukemia = test system: RPMI-8226 leukemia
SK-MEL-2 melanoma = test system: SK-MEL-2 melanoma
SNB-75 CNS = test system: SNB-75 CNS
HL-60(TB) leukemia = test system: HL-60(TB) leukemia
SF-268 CNS = test system: SF-268 CNS

CC1(C)CC2(C)ON=C(c3ccccc3)N2c2ccccc2N1 (stereo unspecified)
TGI (OVCAR-8 ovarian): > 100 µM | TGI (MALME-3M melanoma): 55.3 µM | TGI (NCI-H23 lung): 82.1 µM | TGI (A498 renal): 54.4 µM | TGI (UACC-62 melanoma): 27.9 µM | TGI (SR leukemia): > 100 µM | TGI (NCI-H226 lung): 42.8 µM | TGI (HCT-15 colon): > 100 µM | TGI (SK-MEL-28 melanoma): 57.5 µM | TGI (HCC-2998 colon): > 100 µM | TGI (IGROV1 ovarian): > 100 µM | TGI (SK-MEL-5 melanoma): 30.7 µM | TGI (EKVX NSCLC): 77 µM | TGI (M14 melanoma): 40.6 µM | TGI (PC-3 prostate): 42.1 µM | TGI (RXF 393 renal): 54.5 µM | TGI (HS 578T breast): 42.6 µM | TGI (SNB-19 CNS): 68.1 µM | TGI (NCI/ADR-RES ovarian): 74.6 µM | TGI (HCT-116 colon): 28 µM | TGI (OVCAR-3 ovarian): 33.7 µM | TGI (U251 CNS): 41.1 µM | TGI (MOLT-4 leukemia): 75.6 µM | TGI (LOX IMVI melanoma): 33.8 µM | TGI (K-562 leukemia): 52.3 µM | TGI (TK-10 renal): 91.8 µM | TGI (MCF7 breast): 47 µM | TGI (KM12 colon): > 100 µM | TGI (HT29 colon): 29.9 µM | TGI (SW-620 colon): > 100 µM | TGI (SF-539 CNS): 40.1 µM | TGI (SF-295 CNS): > 100 µM | TGI (CAKI-1 renal): 60.2 µM | TGI (786-0 renal): 57.3 µM | TGI (HOP-62 NSCLC): 37 µM | TGI (MDA-MB-435): 39.8 µM | TGI (A549 NSCLC): > 100 µM | TGI (UO-31 renal): 43.6 µM | TGI (ACHN renal): 68.8 µM | TGI (COLO 205 colon): 45.9 µM | TGI (SN12C renal): 84 µM | TGI (HOP-92 NSCLC): 61.4 µM | TGI (T-47D breast): 56.7 µM | TGI (NCI-H522 lung): 47.3 µM | TGI (DU-145 prostate): > 100 µM | TGI (MDA-N): 47.9 µM | TGI (OVCAR-4 ovarian): > 100 µM | TGI (MDA-MB-231 breast): 28.7 µM | TGI (NCI-H460 lung): 46.9 µM | TGI (UACC-257 melanoma): 58.3 µM | TGI (SK-OV-3 ovarian): 53 µM | TGI (CCRF-CEM leukemia): > 100 µM | TGI (OVCAR-5 ovarian): > 100 µM | TGI (BT-549 breast): 36.9 µM | TGI (RPMI-8226 leukemia): 93 µM | TGI (SK-MEL-2 melanoma): 40.1 µM | TGI (SNB-75 CNS): 94.9 µM | TGI (HL-60(TB) leukemia): 56.4 µM | TGI (SF-268 CNS): 48.2 µM

COC(=O)C1=NN2c3ccccc3CN([C@@H](C)c3ccccc3)C(=O)[C@H]2[C@@H]1C
TGI (OVCAR-8 ovarian): > 100 µM | TGI (MALME-3M melanoma): > 100 µM | TGI (NCI-H23 lung): > 100 µM | TGI (A498 renal): > 100 µM | TGI (UACC-62 melanoma): > 100 µM | TGI (SR leukemia): > 100 µM | TGI (NCI-H226 lung): > 100 µM | TGI (HCT-15 colon): > 100 µM | TGI (SK-MEL-28 melanoma): > 100 µM | TGI (HCC-2998 colon): > 100 µM | TGI (SK-MEL-5 melanoma): 30.1 µM | TGI (EKVX NSCLC): > 100 µM | TGI (M14 melanoma): > 100 µM | TGI (PC-3 prostate): > 100 µM | TGI (RXF 393 renal): > 100 µM | TGI (HS 578T breast): > 100 µM | TGI (SNB-19 CNS): > 100 µM | TGI (NCI/ADR-RES ovarian): > 100 µM | TGI (HCT-116 colon): > 100 µM | TGI (OVCAR-3 ovarian): > 100 µM | TGI (U251 CNS): > 100 µM | TGI (MOLT-4 leukemia): > 100 µM | TGI (LOX IMVI melanoma): > 100 µM | TGI (K-562 leukemia): > 100 µM | TGI (TK-10 renal): > 100 µM | TGI (MCF7 breast): > 100 µM | TGI (KM12 colon): > 100 µM | TGI (HT29 colon): > 100 µM | TGI (SW-620 colon): > 100 µM | TGI (SF-539 CNS): > 100 µM | TGI (SF-295 CNS): > 100 µM | TGI (CAKI-1 renal): > 100 µM | TGI (786-0 renal): > 100 µM | TGI (HOP-62 NSCLC): > 100 µM | TGI (MDA-MB-435): > 100 µM | TGI (A549 NSCLC): > 100 µM | TGI (UO-31 renal): > 100 µM | TGI (ACHN renal): > 100 µM | TGI (COLO 205 colon): 66.8 µM | TGI (SN12C renal): > 100 µM | TGI (HOP-92 NSCLC): > 100 µM | TGI (T-47D breast): 88.3 µM | TGI (NCI-H522 lung): > 100 µM | TGI (DU-145 prostate): > 100 µM | TGI (MDA-N): > 100 µM | TGI (OVCAR-4 ovarian): > 100 µM | TGI (MDA-MB-231 breast): > 100 µM | TGI (NCI-H460 lung): > 100 µM | TGI (UACC-257 melanoma): > 100 µM | TGI (SK-OV-3 ovarian): > 100 µM | TGI (CCRF-CEM leukemia): > 100 µM | TGI (OVCAR-5 ovarian): > 100 µM | TGI (BT-549 breast): 95.3 µM | TGI (SK-MEL-2 melanoma): > 100 µM | TGI (SNB-75 CNS): 95 µM | TGI (HL-60(TB) leukemia): > 100 µM | TGI (SF-268 CNS): > 100 µM
